Structures can show the parent of a compound that is named as a salt.
Key:
Format in all cases: cell-based
S. typhi T-287 = experiment: MIC by agar plate dilution method, S. typhi T-287; conditions: seeding 10^6 cells/ml; for MIC: Salmonella enterica, read-out: minimum inhibitory concentration (MIC)
Procedure: (§1) Each series of dilution was prepared with use of testing compounds prepared by the Examples and control compound of Gentamicin as well as a liquid medium. The minimum inhibitory concentration (MIC in μg/ml) to each pathogen (seeding amount: 10^6 cells/ml) was determined, in accordance with the standard method (agar plate dilution method) by the Chemotherapy Society of Japan.

C. fleundii NIH 10018-68 = experiment: MIC by agar plate dilution method, C. fleundii NIH 10018-68; conditions: for MIC: read-out: minimum inhibitory concentration (MIC)
Procedure: as §1

P. rettgeri NIH 96 = experiment: MIC by agar plate dilution method, P. rettgeri NIH 96; conditions: for MIC: Providencia rettgeri, NIH96, seeding 10^6 cells/ml, read-out: minimum inhibitory concentration (MIC)
Procedure: as §1

P. aeruginosa Nc-5 = experiment: MIC by agar plate dilution method, P. aeruginosa Nc-5; conditions: for MIC: Pseudomonas aeruginosa, NC5, seeding 10^6 cells/ml, read-out: minimum inhibitory concentration (MIC)
Procedure: as §1

S. flexneri 2a EW-10 = experiment: MIC by agar plate dilution method, S. flexneri 2a EW-10; conditions: Shigella flexneri, 2AEW10, seeding 10^6 cells/ml, read-out: minimum inhibitory concentration (MIC)
Procedure: as §1

E. coli K-12 = experiment: MIC by agar plate dilution method, E. coli K-12; conditions: for MIC: Escherichia coli, K12, seeding 10^6 cells/ml, read-out: minimum inhibitory concentration (MIC)
Procedure: as §1

P. vulgaris OX-19 = experiment: MIC by agar plate dilution method, P. vulgaris OX-19; conditions: for MIC: Proteus vulgaris, OX19, seeding 10^6 cells/ml, read-out: minimum inhibitory concentration (MIC)
Procedure: as §1

E. coli NIH = experiment: MIC by agar plate dilution method, E. coli NIH; conditions: seeding 10^6 cells/ml; for MIC: Escherichia coli, read-out: minimum inhibitory concentration (MIC)
Procedure: as §1

K. pneumoniae NCTC 9632 = experiment: MIC by agar plate dilution method, K. pneumoniae NCTC 9632; conditions: for MIC: Klebsiella pneumoniae, NCTC9632, seeding 10^6 cells/ml, read-out: minimum inhibitory concentration (MIC)
Procedure: as §1

Molecule	MIC (S. typhi T-287)	MIC (C. fleundii NIH 10018-68)	MIC (P. rettgeri NIH 96)	MIC (P. aeruginosa Nc-5)	MIC (S. flexneri 2a EW-10)	MIC (E. coli K-12)	MIC (P. vulgaris OX-19)	MIC (E. coli NIH)	MIC (K. pneumoniae NCTC 9632)	minimum inhibitory concentration (MIC) (S. typhi T-287)	minimum inhibitory concentration (MIC) (C. fleundii NIH 10018-68; C. fleundii NIH 10018-68, seeding 10^6 cells/ml, agar plate dilution)	minimum inhibitory concentration (MIC) (P. rettgeri NIH 96; seeding 10^6 cells/ml)	minimum inhibitory concentration (MIC) (P. aeruginosa Nc-5; seeding 10^6 cells/ml)	minimum inhibitory concentration (MIC) (E. coli K-12; seeding 10^6 cells/ml)	minimum inhibitory concentration (MIC) (P. vulgaris OX-19; seeding 10^6 cells/ml)	minimum inhibitory concentration (MIC) (E. coli NIH)	minimum inhibitory concentration (MIC) (K. pneumoniae NCTC 9632; seeding 10^6 cells/ml)
CO/N=C(\C(=O)N[C@@H]1C(=O)N2C(C(=O)[O-])=C(C[n+]3cccc([Si](C)(C)C)c3)CS[C@H]12)c1csc(N)n1 [Example 1, [6R-[6α,7β(Z)]]-1-[7-[[(2-Amino-4-thiazolyl)(methoxyimino)acetyl]amino]-2-carboxy-8-oxo-5-thia-1-azabicyclo[4,2,0]oct-2-en-3-yl]methyl-3-trimethylsilylpyridinium hydroxide, inner salt]	< 0.2 µg/mL	< 0.2 µg/mL	< 0.2 µg/mL	1.56 µg/mL	< 0.2 µg/mL	0.39 µg/mL	< 0.2 µg/mL	< 0.2 µg/mL	0.39 µg/mL	–	–	–	–	–	–	–	–
Gentamicin [reference compound]	–	–	–	–	–	–	–	–	–	0.78 µg/mL	0.39 µg/mL	< 0.20 µg/mL	3.13 µg/mL	0.78 µg/mL	3.13 µg/mL	0.78 µg/mL	0.78 µg/mL
CO/N=C(\C(=O)N[C@@H]1C(=O)N2C(C(=O)[O-])=C(C[n+]3ccc(OC)c([Si](C)(C)C)c3)CS[C@H]12)c1csc(N)n1 [Example 3, [6R-[6α,7β(Z)]]-1-[7-[[(2-Amino-4-thiazolyl)(methoxyimino)acetyl]amino]-2-carboxy-8-oxo-5-thia-1-azabicyclo[4,2,0]oct-2-en-3-yl]methyl-4-methoxy-3-trimethylsilylpyridinium hydroxide, inner salt]	0.39 µg/mL	0.78 µg/mL	< 0.2 µg/mL	6.25 µg/mL	0.39 µg/mL	0.78 µg/mL	< 0.2 µg/mL	0.78 µg/mL	0.78 µg/mL	–	–	–	–	–	–	–	–
CO/N=C(\C(=O)N[C@@H]1C(=O)N2C(C(=O)[O-])=C(C[n+]3ccc([Si](C)(C)C)cc3)CS[C@H]12)c1csc(N)n1 [Example 2, [6R-[6α,7β(Z)]]-1-[7-[[(2-Amino-4-thiazolyl)(methoxyimino)acetyl]amino]-2-carboxy-8-oxo-5-thia-1-azabicyclo[4,2,0]oct-2-en-3-yl]methyl-4-trimethylsilylpyridinium hydroxide, inner salt]	0.39 µg/mL	< 0.2 µg/mL	< 0.2 µg/mL	6.25 µg/mL	0.39 µg/mL	0.78 µg/mL	< 0.2 µg/mL	< 0.2 µg/mL	0.78 µg/mL	–	–	–	–	–	–	–	–

Source: patent US4857521A, “Trialkylsilyl pyridinium cephalosporin antibiotics” (Sanwa Kagaku Kenkyusho Co., Ltd., priority 1986, dated 1989)
